Test results as given in US20240246913A1, “2-CARBOXYL-INDOLE INHIBITORS OF METALLO-BETA-LACTAMASES” (Oxford University Innovation Limited, priority 2021, published 2024).

How the values were obtained:
[1] = Plasma protein binding, equilibrium dialysis, human plasma; format: in vitro ADME; settings: pH 7.4, equilibrium dialysis (RED) 4 hours at 37° C., read-out: Plasma protein binding, fu, Human
Protocol: (§1) The fraction of unbound compound (fu) in plasma from human or other animal species was determined by equilibrium dialysis at 37° C. for 4 hours using the Rapid Equilibrium Dialysis (RED) device (ThermoFisher Scientific). The test compound at a concentration of 10 μM was added to plasma and dialyzed against isotonic phosphate buffer (67 mM, pH 7.4) over 4 hours at 37° C. After dialysis, compound concentrations in buffer and plasma were quantified by LC-MS/MS. In parallel the stability of the compound in plasma was determined by incubating drug-spiked plasma (10 μM) at 37° C. for 4 hours, meanwhile the control plasma sample was kept in the freezer. The concentration of the compound in both samples was quantified by LC-MS/MS (Waters Corp, Milford, MA, USA).

[2] = system: Acinetobacter baumannii NDM-1; test: Antibiotic susceptibility testing (MIC), AB NDM-1; format: cell-based; settings: agar or broth dilution (CLSI/EUCAST)
Protocol: (§2) Antibiotic susceptibility testing was performed using the agar or broth dilution method, in line with the Clinical and Laboratory Standards Institute (CLSI) and European Committee on Antimicrobial Susceptibility Testing (EUCAST) requirements.

VIM-2 = VIM-2 (Escherichia coli, UniProt Q5U7L7); test: MBL inhibition, FC-5 fluorescence assay, VIM-2; format: biochemical; settings: FC-5 cephalosporin substrate, ranges of obtained pIC50, read-out: pIC50 VIM-2 (converted)
Method in brief: (§3)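 Turnover of the fluorogenic cephalosporin FC-5 by each MBL, followed as initial rate of fluorescence increase (ex 380/em 460 nm). Dose-response curves fitted with a variable-slope normalized-response model; 4 intra-plate replicates per concentration.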

Escherichia coli NDM-7 = test: Antibiotic susceptibility testing (MIC), EC NDM-7; format: cell-based; settings: agar or broth dilution (CLSI/EUCAST)
Protocol: as §2

Escherichia coli NDM-1 = test: Antibiotic susceptibility testing (MIC), EC NDM-1; format: cell-based; settings: agar or broth dilution (CLSI/EUCAST)
Protocol: as §2

NDM-1 = NDM-1 (Klebsiella pneumoniae, UniProt C7C422); test: MBL inhibition, FC-5 fluorescence assay, NDM-1; format: biochemical; settings: FC-5 cephalosporin substrate, fluorescence; ranges of obtained pIC50; read-out: pIC50 NDM-1 (converted)
Sequence of NDM-1 (C7C422 29-270, looked up, species assumed): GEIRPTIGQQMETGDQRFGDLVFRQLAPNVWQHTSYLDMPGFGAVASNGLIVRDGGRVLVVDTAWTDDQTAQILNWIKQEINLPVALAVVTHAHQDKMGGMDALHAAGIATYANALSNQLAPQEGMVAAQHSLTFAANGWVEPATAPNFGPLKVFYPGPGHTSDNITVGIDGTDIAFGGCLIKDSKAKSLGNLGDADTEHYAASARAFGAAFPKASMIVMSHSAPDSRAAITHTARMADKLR
Method in brief: as §3

IMP-1 = IMP-1 (Serratia marcescens, UniProt P52699); test: MBL inhibition, FC-5 fluorescence assay, IMP-1; format: biochemical; settings: FC-5 cephalosporin substrate, fluorescence; ranges of obtained pIC50; read-out: pIC50 IMP-1 (converted)
Sequence of IMP-1 (P52699 19-246, looked up, species assumed): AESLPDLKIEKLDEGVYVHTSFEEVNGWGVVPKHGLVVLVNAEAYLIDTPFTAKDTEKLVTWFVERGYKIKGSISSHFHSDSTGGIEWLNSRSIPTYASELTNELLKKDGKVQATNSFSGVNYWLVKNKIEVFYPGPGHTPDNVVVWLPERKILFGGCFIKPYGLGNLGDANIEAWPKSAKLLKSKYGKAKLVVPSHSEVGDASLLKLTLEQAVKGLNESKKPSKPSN
Method in brief: as §3

VIM-1 = VIM-1 (Pseudomonas aeruginosa, UniProt A0A0F7KYQ8); test: MBL inhibition, FC-5 fluorescence assay, VIM-1; format: biochemical; settings: FC-5 cephalosporin substrate, ranges of obtained pIC50, read-out: pIC50 VIM-1 (converted)
Method in brief: as §3

[3] = Plasma protein binding, equilibrium dialysis, mouse plasma; format: in vitro ADME; settings: pH 7.4, equilibrium dialysis (RED) 4 hours at 37° C., read-out: Plasma protein binding, fu, Mouse
Protocol: as §1

Row | fraction unbound at 4 h, 10 μM [3] | Structure (SMILES) | fraction unbound at 4 h, 10 μM [1] | MIC values AB NDM-1 [2] | IC50 (VIM-2) [µM] | MIC values EC NDM-7 (Escherichia coli NDM-7) | MIC values EC NDM-1 (Escherichia coli NDM-1) | IC50 (NDM-1) [µM] | IC50 (IMP-1) [µM] | IC50 (VIM-1) [µM]
1 | – | C[C@@H](c1cccc2c(-c3c[nH]c(=O)c(F)c3)c(C(=O)O)[nH]c12)N1C[C@]2(C[C@@H](CN)C2)OC1=O [IC-26, 7-((1S)-1-(2-(aminomethyl)-6-oxo-5-oxa-7-azaspiro[3.4]octan-7-yl)ethyl)-3-(5-fluoro-6-oxo-1,6-dihydropyridin-3-yl)-1H-indole-2-carboxylic acid] | 0.05 to 0.25 | C (C = MIC values > 8) | 0.0001 to 0.001 | A (A = MIC values ≤ 1) | B (B MIC values 2 ÷ 8) | 0.001 to 0.01 | > 0.01 | > 0.01
2 | – | C[C@@H](c1cccc2c(-c3ccncc3)c(C(=O)O)[nH]c12)N1C[C@]2(C[C@@H](CN)C2)OC1=O [IC-38, 3-(pyridin-4-yl)-7-[(1S)-1-[(2r,4r)-2-(aminomethyl)-6-oxo-5-oxa-7-azaspiro[3.4]octan-7-yl]ethyl]-1H-indole-2-carboxylic acid] | 0.005 to 0.05 | B (B MIC values 2 ÷ 8) | 0.0001 to 0.001 | A (A = MIC values ≤ 1) | A (A = MIC values ≤ 1) | 0.0001 to 0.001 | > 0.01 | 0.001 to 0.01
3 | – | C[C@@H](c1cccc2c(-c3ccnc(N)c3)c(C(=O)O)[nH]c12)N1C[C@]2(C[C@@H](CN)C2)OC1=O [IC-34, 3-(2-Aminopyridin-4-yl)-7-[(1S)-1-[(2r,4r)-2-(aminomethyl)-6-oxo-5-oxa-7-azaspiro[3.4]octan-7-yl]ethyl]-1H-indole-2-carboxylic acid] | > 0.25 | C (C = MIC values > 8) | 0.001 to 0.01 | A (A = MIC values ≤ 1) | B (B MIC values 2 ÷ 8) | > 0.01 | > 0.01 | 0.001 to 0.01
4 | – | C[C@@H](c1cccc2c(-c3ccc(N)nc3)c(C(=O)O)[nH]c12)N1C[C@]2(C[C@@H](CN)C2)OC1=O [IC-37, 3-(6-aminopyridin-3-yl)-7-[(1S)-1-[(2r,4r)-2-(aminomethyl)-6-oxo-5-oxa-7-azaspiro[3.4]octan-7-yl]ethyl]-1H-indole-2-carboxylic acid] | 0.05 to 0.25 | B (B MIC values 2 ÷ 8) | 0.001 to 0.01 | A (A = MIC values ≤ 1) | A (A = MIC values ≤ 1) | 0.001 to 0.01 | > 0.01 | > 0.01
5 | 0.05 to 0.25 | CC(OCC1CC[N+](C)(C)CC1)c1cccc2c(-c3ccc(CS(C)(=O)=O)c(F)c3)c(C(=O)[O-])[nH]c12 (stereo not shown) [IC-90, 7-(1-((1,1-Dimethylpiperidin-1-ium-4-yl)methoxy)ethyl)-3-(3-fluoro-4-((methylsulfonyl)methyl)phenyl)-1H-indole-2-carboxylate] | > 0.25 | – | 0.001 to 0.01 | – | – | 0.001 to 0.01 | > 0.01 | 0.001 to 0.01
6 | – | CNc1cc(-c2c(C(=O)O)[nH]c3c([C@H](C)N4C[C@]5(C[C@@H](CN)C5)OC4=O)cccc23)ccn1 [IC-35, 3-[2-(methylamino)pyridin-4-yl]-7-[(1S)-1-[(2r,4r)-2-(aminomethyl)-6-oxo-5-oxa-7-azaspiro[3.4]octan-7-yl]ethyl]-1H-indole-2-carboxylic acid] | > 0.25 | C (C = MIC values > 8) | 0.0001 to 0.001 | A (A = MIC values ≤ 1) | A (A = MIC values ≤ 1) | > 0.01 | > 0.01 | 0.001 to 0.01
7 | – | C[C@@H](c1cccc2c(-c3cccnc3)c(C(=O)O)[nH]c12)N1C[C@]2(C[C@@H](CN)C2)OC1=O [IC-39, 3-(pyridin-3-yl)-7-[(1S)-1-[(2r,4r)-2-(aminomethyl)-6-oxo-5-oxa-7-azaspiro[3.4]octan-7-yl]ethyl]-1H-indole-2-carboxylic acid] | 0.005 to 0.05 | B (B MIC values 2 ÷ 8) | 0.001 to 0.01 | A (A = MIC values ≤ 1) | A (A = MIC values ≤ 1) | 0.0001 to 0.001 | > 0.01 | 0.0001 to 0.001
8 | – | C[C@@H](c1cccc2c(-c3ccn(C)c(=O)c3)c(C(=O)O)[nH]c12)N1C[C@]2(C[C@@H](CN)C2)OC1=O [IC-32, 3-(1-methyl-2-oxo-1,2-dihydropyridin-4-yl)-7-[(1S)-1-[(2r,4r)-2-(aminomethyl)-6-oxo-5-oxa-7-azaspiro[3.4]octan-7-yl]ethyl]-1H-indole-2-carboxylic acid] | > 0.25 | B (B MIC values 2 ÷ 8) | 0.0001 to 0.001 | A (A = MIC values ≤ 1) | B (B MIC values 2 ÷ 8) | 0.0001 to 0.001 | > 0.01 | 0.001 to 0.01
9 | 0.005 to 0.05 | CC(c1cccc2c(-c3ccc(CS(C)(=O)=O)c(F)c3)c(C(=O)O)[nH]c12)N1C(=O)CN(CCCN)C1=O (stereo not shown) [IC-13, 7-[1-[3-(3-Aminopropyl)-2,5-dioxo-imidazolidin-1-yl]ethyl]-3-[3-fluoro-4-(methylsulfonylmethyl)phenyl]-1H-indole-2-carboxylic acid] | 0.05 to 0.25 | – | > 0.01 | – | – | < 0.0001 | > 0.01 | 0.001 to 0.01
10 | – | C[C@@H](c1cccc2c(-c3cnn(C)c(=O)c3)c(C(=O)O)[nH]c12)N1C[C@]2(C[C@@H](CN)C2)OC1=O [IC-28, 7-((S)-1-((2S,4r)-2-(aminomethyl)-6-oxo-5-oxa-7-azaspiro[3.4]octan-7-yl)ethyl)-3-(1-methyl-6-oxo-1,6-dihydropyridazin-4-yl)-1H-indole-2-carboxylic acid] | 0.05 to 0.25 | C (C = MIC values > 8) | 0.0001 to 0.001 | A (A = MIC values ≤ 1) | B (B MIC values 2 ÷ 8) | 0.001 to 0.01 | > 0.01 | 0.001 to 0.01
11 | – | CNc1ccc(-c2c(C(=O)O)[nH]c3c([C@H](C)N4C[C@]5(C[C@@H](CN)C5)OC4=O)cccc23)cn1 [IC-36, 3-[6-(methylamino)pyridin-3-yl]-7-[(1S)-1-[(2r,4r)-2-(aminomethyl)-6-oxo-5-oxa-7-azaspiro[3.4]octan-7-yl]ethyl]-1H-indole-2-carboxylic acid] | 0.05 to 0.25 | B (B MIC values 2 ÷ 8) | > 0.01 | A (A = MIC values ≤ 1) | A (A = MIC values ≤ 1) | > 0.01 | > 0.01 | > 0.01
12 | < 0.005 | CC(NS(C)(=O)=O)c1cccc2c(-c3cc(Cl)cc(Cl)c3)c(C(=O)O)[nH]c12 (stereo not shown) [IC-2, 3-(3,5-Dichlorophenyl)-7-(1-(methylsulfonamido)ethyl)-1H-indole-2-carboxylic acid] | < 0.005 | – | > 0.01 | – | – | > 0.01 | > 0.01 | > 0.01
13 | – | COc1cc(-c2c(C(=O)O)[nH]c3c([C@H](C)N4C[C@]5(C[C@@H](CN)C5)OC4=O)cccc23)cnc1O [IC-25, 7-((S)-1-((2S,4r)-2-(aminomethyl)-6-oxo-5-oxa-7-azaspiro[3.4]octan-7-yl)ethyl)-3-(6-hydroxy-5-methoxypyridin-3-yl)-1H-indole-2-carboxylic acid] | > 0.25 | C (C = MIC values > 8) | 0.0001 to 0.001 | B (B MIC values 2 ÷ 8) | C (C = MIC values > 8) | > 0.01 | > 0.01 | > 0.01

Row | Structure (SMILES) | fraction unbound at 4 h, 10 μM [3] | fraction unbound at 4 h, 10 μM [1] | MIC values AB NDM-1 [2] | IC50 (VIM-2) [µM] | MIC values EC NDM-7 (Escherichia coli NDM-7) | MIC values EC NDM-1 (Escherichia coli NDM-1) | IC50 (NDM-1) [µM] | IC50 (IMP-1) [µM] | IC50 (VIM-1) [µM]
14 | C[C@@H](c1cccc2c(-c3ccc(=O)[nH]c3)c(C(=O)O)[nH]c12)N1C[C@]2(C[C@@H](CN)C2)OC1=O [IC-15, 7-((S)-1-((2S,4r)-2-(aminomethyl)-6-oxo-5-oxa-7-azaspiro[3.4]octan-7-yl)ethyl)-3-(6-oxo-1,6-dihydropyridin-3-yl)-1H-indole-2-carboxylic acid] | 0.005 to 0.05 | 0.05 to 0.25 | C (C = MIC values > 8) | – | A (A = MIC values ≤ 1) | B (B MIC values 2 ÷ 8) | – | – | –
